Legend:
[1] = Bleeding: ability to dissolve in a dispersion medium (optical density of supernatant); type: physicochemical; conditions: supernatant absorbance 400 to 800 nm, bleeds when O.D. >1.5; for Bleeding in water, O.D.: 1% by weight compound in water + 1% Polysorbate 20; for Bleeding in oil (triglycerides), O.D.: 1% by weight compound in caprylic/capric acid triglycerides
Description: 3/Bleeding: Ability to Dissolve in a Dispersion Medium
A dispersion was prepared comprising 1% by weight of test compound in an oil (caprylic/capric acid triglycerides).
A dispersion was also prepared comprising 1% by weight of test compound in a mixture of water and 1% by weight of wetting agent (Polysorbate 20).
The mixture was stirred for 10 minutes using a magnetic bar. 10 g of dispersion were weighed out and placed in centrifuge tubes. This material was centrifuged for 30 minutes at 3000 rpm.
The supernatant liquid was taken up and the optical density was determined by measuring the absorbence on a spectrophotometer from 400 to 800 nm, at a speed of 240 nm/min.
The compound was considered to bleed when the optical density was greater than 1.5.

[2] = Photochemical stability (SUNTEST CPS, colour difference before/after); type: physicochemical; conditions: compacted pure compound, SUNTEST CPS one hour, 765 watts/m^2; UV-unstable when ΔE >6
Description: 4/Photochemical Stability
The UV stability was carried out by leaving the compacted pure test compound (100 bar, FAP crucible) in the SUNTEST CPS for one hour. The SUNTEST CPS is an apparatus sold by Heraeus. […] The apparatus was used at 765 watts/m^2 and emits UVA, UVB, and visible light over a range of 300 to 800 nm.
The difference in colour ΔE before and after the SUNTEST was measured by colorimetry.
The compound was considered as UV-unstable when the ΔE was >6.

Row | SMILES | Bleeding in water, O.D. [1] | Photochemical stability ΔE [2] | melting point [°C] | Bleeding in oil (triglycerides), O.D. [1]
1 | CCCCCCOc1cc2c3c(oc2c2ccccc12)C(=O)c1ccccc1C3=O [5-hexyloxydinaphtho-(1,2-b:2′,3′-d)furan-7,12-dione] | O.D. = 0.29 | ΔE = 0.91 | 173.9 | –
2 | CC(C)Oc1cc2c3c(oc2c2ccccc12)C(=O)c1ccccc1C3=O [5-isopropyloxydinaphtho-(1,2-b:2′,3′-d)furan-7,12-dione] | O.D. = 0.03 | ΔE = 0.81 | – | –
3 | O=C1c2ccccc2C(=O)c2c1oc1cc(O)c3ccccc3c21 [5-hydroxydinaphtho(2,1-b:2′,3′-d)furan-8,13-dione] | O.D. = 0.16 | ΔE = 0.10 | – | –
4 | O=C(O)c1nn(-c2ccc(S(=O)(=O)O)cc2)c(O)c1N=Nc1ccc(S(=O)(=O)O)cc1 [FD&C Yellow No. 5, reference compound] | O.D. = 0.08 | ΔE = 6.63 | – | –
5 | COc1ccc2c(ccc3oc4c(c32)C(=O)c2ccccc2C4=O)c1 [3-methoxydinaphtho-(2,1-b:2′,3′-d)furan-8,13-dione] | O.D. = 0.04 | ΔE = 0.81 | 292.1 | O.D. = 0.88
6 | O=S(=O)([O-])c1ccc(N=Nc2c(O)ccc3cc(S(=O)(=O)[O-])ccc23)cc1.[Na+].[Na+] [FD&C Yellow No. 6, reference compound] | O.D. = 0.58 | ΔE = 10.06 | – | –
7 | O=C1c2ccccc2C(=O)c2c1oc1c2ccc2ccc(O)cc21 [2-Hydroxy-dinaphtho(1,2-b:2′,3′-d)furan-7,12-dione] | O.D. = 0.23 | ΔE = 1.32 | – | –
8 | O=C1c2ccccc2C(=O)c2c1oc1ccc3ccccc3c21 [Dinaphtho(2,1-b:2′,3′-d)furan-8,13-dione, dinaphtho(2,1-b:2′,3′-d)furan-8,13-dione] | O.D. = 0.01 | ΔE = 0.23 | – | –
9 | COc1ccc2ccc3oc4c(c3c2c1)C(=O)c1ccccc1C4=O [2-methoxydinaphtho-(2,1-b:2′,3′-d)furan-8,13-dione] | O.D. = 0.30 | ΔE = 0.28 | – | –
10 | CCOc1cc2c3c(oc2c2ccccc12)C(=O)c1ccccc1C3=O [5-ethoxydinaphtho(1,2-b:2′,3′-d)furan-7,12-dione] | O.D. = 0.27 | ΔE = 0.24 | – | –
11 | O=C1c2ccccc2C(=O)c2c1oc1ccc3cc(Br)ccc3c21 [3-bromodinaphtho(2,1-b:-2′,3′-d)furan-8,13-dione] | O.D. = 0.03 | ΔE = 2.61 | – | O.D. = 0.92
12 | O=C1c2ccccc2C(=O)c2c1oc1c2ccc2ccccc21 [Dinaphtho(1,2-b:2′,3′-d)furan-7,12-dione, dinaphtho(1,2-b:2′,3′-d)furan-7,12-dione] | O.D. = 0.13 | ΔE = 3.91 | – | –
13 | O=C1c2ccccc2C(=O)c2c1oc1c2cc(Cl)c2ccccc21 [5-chlorodinaphtho-(1,2-b:2′,3′-d)furan-7,12-dione] | O.D. = 0.02 | ΔE = 1.36 | – | –
